From patent publication US20040122048A1, “Stabilized pharmaceutical composition containing basic excipients” (Wyeth Holdings Corporation, priority 2002, published 2004)

How the values were obtained:
[1] = pH of excipient solutions and of crushed EKB-569 tablet slurries; format: physicochemical; settings: for pH at 0.1% excipient, Excipient Solution: 0.1% solution/suspension of basic excipient; for pH at 0.5% excipient, Excipient Solution: 0.5% solution/suspension of basic excipient; for pH at 1% excipient, Excipient Solution: 1% solution/suspension of basic excipient; for pH at 5% excipient, Excipient Solution: 5% solution/suspension of basic excipient
Text: The data in Table 3 supported testing improved stability of a pharmaceutical composition by lowering the pH of the pharmaceutical composition. […]

[2] = Stability of EKB-569 solution (degradation rate constant in buffers); format: physicochemical; settings: for EKB-569 degradation rate constant: 0.2 mg/mL in 0.02 M buffer with 50% Acetonitrile
[3] = Solid state stability for EKB-569 drug substance at 56° C./75% RH; format: physicochemical; settings: for % EKB-569 remaining / Total impurities: drug substance, 56° C./75% RH
Description: A study was conducted at 56° C./75% RH for 2 weeks. The samples were filled into 2-ml flame sealed Kimble score-break ampules.

[4] = Description: Compositions of tablets containing 0.5% and 0.1% of these excipients remain the same. Quantity of microcrystalline cellulose was adjusted to allow for the changes in the amounts of basic excipients. Tablets were manufactured using granulation.
Tablets were stored at 40° C./75% RH for 1 month.

Compound	pH at 0.1% excipient, Excipient Solution [1]	pH at 0.5% excipient, Excipient Solution [1]	pH at 1% excipient, Excipient Solution [1]	pH at 5% excipient, Excipient Solution [1]	further results
N=C(N)NCCC[C@H](N)C(=O)O [Arginine]	10.18	10.57	10.91	11.23	–
O=C([O-])[O-].[Ca+2] [Calcium carbonate]	8.95	8.93	9.02	9.12	–
O=C([O-])CN(CCN(CC(=O)[O-])CC(=O)[O-])CC(=O)[O-].[Na+].[Na+].[Na+].[Na+] [EDTA, tetra sodium]	10.55	10.84	10.94	10.75	–
CCOc1cc2ncc(C#N)c(Nc3ccc(F)c(Cl)c3)c2cc1NC(=O)C=CCN(C)C [EKB-569, 4-dimethylamino-but-2-enoic acid [4-(3-chloro-4-fluoro-phenylamino)-3-cyano-7-ethoxy-quinolin-6-yl]-amide]	–	–	–	–	EKB-569 degradation rate constant ([2]; pH 1.2 (HCl), 80° C.): 0.0013 h⁻¹; EKB-569 degradation rate constant ([2]; pH 3.0 (Phoshphate), 80° C.): 0.0003 h⁻¹; EKB-569 degradation rate constant ([2]; pH 5.0 (Acetate), 56° C.): 0.0008 h⁻¹; EKB-569 degradation rate constant ([2]; pH 5.0 (Acetate), 80° C.): 0.0113 h⁻¹; EKB-569 degradation rate constant ([2]; pH 7.4 (Phosphate), 56° C.): 0.003 h⁻¹; EKB-569 degradation rate constant ([2]; pH 7.4 (Phosphate), 80° C.): 0.0235 h⁻¹; EKB-569 degradation rate constant ([2]; pH 9 (Glycine), 56° C.): 0.0031 h⁻¹; EKB-569 degradation rate constant ([2]; pH 9 (Glycine), 80° C.): 0.0229 h⁻¹; stability in solution as a function of pH ([2]; pH range 1.2-9, 56° C. and 80° C.): more stable in acidic solution; stability in the solid state ([3]; 56° C./75% RH for 2 weeks): chemical instability in the solid state; % EKB-569 remaining ([3]; 3 Days): 98.1%; Total impurities ([3]; 3 Days): 1.1%; % EKB-569 remaining ([3]; 7 Days): 97.7%; Total impurities ([3]; 7 Days): 1.68%; % EKB-569 remaining ([3]; 14 Days): 97.1%; Total impurities ([3]; 14 Days): 2.62%; % EKB-569 remaining ([3]; Initial): 99.1%; Total impurities ([3]; Initial): 0.78%
O=C([O-])O.[Na+] [Sodium bicarbonate]	8.69	8.56	8.34	8.18	–
O=C([O-])[O-].[Na+].[Na+] [Sodium carbonate]	10.99	11.21	11.31	11.5	–
NC(CO)(CO)CO [Tromethamine]	9.98	9.99	10.51	10.87	–
OC[C@H]1O[C@@H](O[C@H]2[C@H](O)[C@@H](O)C(O)O[C@@H]2CO)[C@H](O)[C@@H](O)[C@H]1O (stereo partly shown) [lactose]	–	–	–	–	effect on stability of EKB-569 pharmaceutical composition [4]: no effect on stability
